Read-outs that look alike come from different tables or passages of the source.
Legend:
Type in all cases: cell-based
[1] = test system: K562/vcr; assay: Reversal of drug resistance, MTT assay, 48 h; conditions: for IC50: Homo sapiens, read-out: IC50 Control; for IC50 / IC50 Schisandrin B: 48 h; for RF (Reversal Folds): IC50 in the absence of Schisandrin B divided by IC50 in the presence of Schisandrin B (10 μg/ml); for IC50 Schisandrin B: anticancer drug toward K562/vcr in the presence of Schisandrin B (10 μg/ml)
Protocol: To illustrate a method for reversal of drug resistance by application of Schisandrin B, cell lines K562/adr, K562/vcr (X. […] H. […] Cells were cultured in RPMI-1640 medium containing 10% fetal calf serum. […] The logarithmic growing cells were seeded into a 96 well plate (20,000 cells/well). Specific anticancer drugs (set forth in Table 1) and Schisandrin B in combination were added into the wells containing the select cell lines. […] Cell viability was assessed by MTT assays as described in X.

[2] = test system: human leukemia MDR cell line K562/adr; assay: Reversal of drug resistance of K562/adr, MTT assay, 72 h; conditions: for IC50: Homo sapiens, read-out: IC50 Control; for RF (Schisandrin B): IC50 in the absence divided by IC50 in the presence of Schisandrin B (10 μg/ml); for RF (verapamil): IC50 in the absence divided by IC50 in the presence of verapamil (6 μg/ml); for IC50 Schisandrin B: anticancer drug in the presence of Schisandrin B (10 μg/ml); for IC50 verapamil: anticancer drug in the presence of verapamil (6 μg/ml)
Protocol: (§1) In this embodiment, the IC50 of anticancer drugs in the presence or absence of Schisandrin B toward MDR cells was determined.
(§2) MTT assays were carried out in triplicate against human leukemia MDR cell line K562/adr and human epidermoid carcinoma MDR cell line KBV200. MTT assays as described previously (X. Hu, et al., Chemotherapy 41:296-305 (1995)) were used to determine the cytotoxicity of each anticancer drug in the presence or absence of Schisandrin B or verapmil.
Cells were treated with specific anticancer drugs as set forth therein. “Ctrl” represents control cells treated with anticancer drugs in the absence of Schisandrin B or verapamil. “SchB” represents cells treated with anticancer drugs in the presence of Schisandrin B (10 μg/ml).

[3] = test system: human epidermoid carcinoma MDR cell line KBV200; assay: Reversal of drug resistance of KBV200, MTT assay, 72 h; conditions: for IC50: Homo sapiens, read-out: IC50 Control; for RF (Schisandrin B): IC50 in the absence / IC50 in the presence of Schisandrin B (10 μg/ml); for RF (Schisandrin B) / RF (verapamil) / IC50 Schisandrin B / IC50 verapamil: KBV200; for RF (verapamil): IC50 in the absence / IC50 in the presence of verapamil (6 μg/ml); for IC50 Schisandrin B: anticancer drug in the presence of Schisandrin B (10 μg/ml); for IC50 verapamil: anticancer drug in the presence of verapamil (6 μg/ml)
Protocol: as §1, §2
Cells were treated with specific anticancer drugs as set forth therein. […] “SchB” represents cells treated with anticancer drugs in the presence of Schisandrin B (10 μg/ml).

[4] = anticancer drug toward K562/vcr in the absence of Schisandrin B
[5] = anticancer drug alone, K562/adr, 72 h
[6] = anticancer drug alone, KBV200, 72 h

| Structure (SMILES) | IC50 ([1]; K562/VCR) | RF (Reversal Folds) [1] | IC50 Schisandrin B [1] | IC50 ([2]; K562/Adr, 72 h) | RF (Schisandrin B) ([2]; K562/adr) | RF (verapamil) ([2]; K562/adr) | IC50 Schisandrin B ([2]; K562/adr) | IC50 verapamil ([2]; K562/adr) | IC50 ([3]; KBv200, 72 h) | RF (Schisandrin B) [3] | RF (verapamil) [3] | IC50 Schisandrin B [3] | IC50 verapamil [3] | IC50 [1, 4] | IC50 [2, 5] | IC50 [3, 6] | IC50 Control [2, 5] | IC50 Control [3, 6] |
| --- | --- | --- | --- | --- | --- | --- | --- | --- | --- | --- | --- | --- | --- | --- | --- | --- | --- | --- |
| COc1cccc2c1C(=O)c1c(O)c3c(c(O)c1C2=O)C[C@@](O)(C(C)=O)C[C@@H]3O[C@H]1C[C@H](N)[C@H](O)[C@H](C)O1 [Daunorubicin, daunorubicin] | 0.45 ± 0.25 µg/mL | 40.9 | 0.011 ± 0.0001 µg/mL | 0.505 ± 0.0728 µg/mL | 5.16 | 6.38 | 0.0977 ± 0.063 µg/mL | 0.0791 ± 0.0313 µg/mL | 0.305 ± 0.0728 µg/mL | 3.34 | 5.49 | 0.0913 ± 0.003 µg/mL | 0.0555 ± 0.0175 µg/mL |  |  |  |  |  |
| COc1cccc2c1C(=O)c1c(O)c3c(c(O)c1C2=O)C[C@@](O)(C(=O)CO)C[C@@H]3O[C@H]1C[C@H](N)[C@@H](O)[C@H](C)O1 [Epirubicin, epirubicin] |  | 5.81 | 0.44 ± 0.14 µg/mL |  | 4.35 | 5.95 | 0.3033 ± 0.0812 µg/mL | 0.2218 ± 0.0909 µg/mL |  | 9.56 | 8.06 | 0.1033 ± 0.0545 µg/mL | 0.1226 ± 0.082 µg/mL | 2.56 ± 0.84 µg/mL | 1.32 ± 0.322 µg/mL | 0.988 ± 0.152 µg/mL |  |  |
| COC(=O)C[C@](O)(CCCC(C)(C)O)C(=O)O[C@@H]1C(OC)=C[C@]23CCCN2CCc2cc4c(cc2[C@H]13)OCO4 [Homoharringtonine] |  | 11 | 0.050 ± 0.01 µg/mL |  | 4.44 | 6.1 | 0.0964 ± 0.0312 µg/mL | 0.0701 ± 0.0042 µg/mL |  | 4.94 | 4.74 | 0.1064 ± 0.0812 µg/mL | 0.1108 ± 0.0076 µg/mL | 0.55 ± 0.02 µg/mL | 0.428 ± 0.108 µg/mL | 0.526 ± 0.199 µg/mL |  |  |
| CC[C@@]1(O)C(=O)OCc2c1cc1n(c2=O)Cc2cc3cc(O)ccc3nc2-1 [Hydroxycamptothecine] |  |  |  |  | 8.84 | 8.53 | 0.0417 ± 0.062 µg/mL | 0.0432 ± 0.0205 µg/mL |  | 3.07 | 3.48 | 0.0527 ± 0.0613 µg/mL | 0.0468 ± 0.0254 µg/mL |  |  |  | 0.3688 ± 0.0875 µg/mL | 0.1618 ± 0.1501 µg/mL |
| CN(Cc1cnc2nc(N)nc(N)c2n1)c1ccc(C(=O)N[C@@H](CCC(=O)O)C(=O)O)cc1 [Methotrexate, methotrexate] |  |  | >10 µg/mL |  |  |  |  |  |  |  |  |  |  | > 10 µg/mL |  |  |  |  |
| O=C1c2c(O)ccc(O)c2C(=O)c2c(NCCNCCO)ccc(NCCNCCO)c21 [Mitoxantron, mitoxantron] |  | 4.0 | 0.20 ± 0.06 µg/mL |  | >10.52 | >10.52 | <0.01 µg/mL | <0.01 µg/mL |  | >9.06 | >9.06 | <0.01 µg/mL | <0.01 µg/mL | 0.79 ± 0.33 µg/mL | 0.105 ± 0.0356 µg/mL | 0.0906 ± 0.0456 µg/mL |  |  |
| CC(=O)O[C@H]1C(=O)[C@@]2(C)[C@H]([C@H](OC(=O)c3ccccc3)[C@]3(O)C[C@H](OC(=O)[C@H](O)[C@@H](NC(=O)c4ccccc4)c4ccccc4)C(C)=C1C3(C)C)[C@]1(OC(C)=O)CO[C@@H]1C[C@@H]2O [Taxol, taxol] |  |  |  |  | 17.89 | 23.94 | 0.01913 ± 0.0208 µg/mL | 0.0143 ± 0.0093 µg/mL |  | 2.82 | 2.71 | 0.0316 ± 0.0019 µg/mL | 0.0329 ± 0.0079 µg/mL |  | 0.342 ± 0.132 µg/mL | 0.089 ± 0.0079 µg/mL |  |  |
